Data set [1] in a line: Plasma Fpx concentration (anti-FXa assay) after oral and intravenous administration of aqueous nanoparticulate suspensions. It is filed as in vivo, male Sprague-Dawley rats. Here is the method: The anticoagulant activity of Fpx:Sq^+ aqueous nanoparticulate suspensions of example 4 was evaluated in vivo after oral and intravenous (IV) administration in male Sprague-Dawley rats. The following formulations were administrated orally to the rats (n=4) with the help of feeding needle (Harvard Apparatus, France): NPs at the optimized ratio 1:6 at 25 mg/kg (eq. Fpx) and 50 mg/kg (eq. Fpx), Fpx saline solution at 50 mg/kg and isotonic sodium chloride solution as control. The volume of the administrated solution was 1 mL per 100 g of the rat weight. Blood samples were periodically taken from the jugular vein after anesthesia with isoflurane and the plasma concentration of active Fpx was estimated using an anti-FXa assay. Additionally, a saline solution of Fpx and NPs at the optimized ratio 1:6, both at 200 µg/kg (eq. Fpx) were injected intravenously to the rats (n=3) through the tail vein after anesthesia with isoflurane. Blood samples were periodically taken and the plasma concentration of active Fpx was estimated using an anti-FXa assay. […]

A short description of data set [2]: Permeation of Fpx across fresh intestinal tissue in Ussing-type chambers. It is filed as in vitro ADME, male Sprague Dawley rats. The protocol: The permeation of Fpx in solution was investigated through the intestinal epithelium at 37°C, in the two directions (mucosal-to-serosal, M-S, absorptive direction and serosal-to-mucosal, S-M, secretory direction) and in presence or not of verapamil, an inhibitor of P-gp (P-glycoprotein) (Fig. 3).
Ussing-type chambers were used to evaluate the permeation of Fpx in fresh intestinal tissues, under the free form and loaded in NPs. For permeation studies non fasting male Sprague Dawley rats weighting 250 to 300 g were used. After sacrificing the rats, jejunum from fresh small intestine was excised and rinsed with chilled physiological solution (isotonic Sorensen's Phosphate buffer solution: 0.2 mM Na2HPO4; 0.2 mM NaH2PO4, H2O with a pH of 6.8). The excised intestine was cut into segments of 2 - 3 cm length and mounted in Ussing chamber (0.75 cm^2 surface area) bathed with Sorensen buffer pH 6.8 in mucosal and serosal sides. The system was maintained at 37°C and continuously oxygenated with O2/CO2 (95% /5%). After equilibration at the temperature of the experiment (15 min), Fpx in solution or loaded in NPs at the concentration of 2 mg/mL were added to the donor compartment. For this purpose, 1.2 mL of Fpx:Sq^+ NPs (at Fpx concentration of 5 mg/mL were diluted in 1.8 mL of Sorensen buffer pH 6.8 prior to the addition to the donor chamber. After 0, 30, 60, 90, 120, 150 and 180 min, 500 µL samples were taken out from the acceptor chambers and replaced with the same volume of fresh transport medium pre-equilibrated at 37°C. The samples were stored at 4°C until analysis. Fpx was quantified by the Azure A assay and Anti-Xa assay. The influence of verapamil was investigated on the intestinal permeation of Fpx in solution and loaded in NPs. For this purpose, verapamil was added to the Sorensen buffer at the concentration of 0.1 mM in the serosal compartment five minutes before the experiment.
Thus, figure 3 is a diagram showing a comparison of the permeation of Fpx across the intestinal tissue under the following experimental conditions: mucosal-to-serosal direction (M-S, continuous lines); serosal-to-mucosal direction (S-M, broken line) and in presence (open symbols) or in absence (filled symbols) of verapamil. Donor chambers contained initially 2 mg/mL of Fpx. Data represent means ± SEM of at least six independent experiments.
Donor chambers contained 2 mg/mL of Fpx and Sq^+ in molar ratio Fpx to Sq^+ 1:6. Data represent means ± SEM of at least six independent experiments.
At last, figure 5 represents a diagram showing net fluxes of Fpx in free form or in Fpx:Sq+ NPs in the presence or in the absence of verapamil when added in serosal side at 180 min. Values are indicated as means SEM at least six experiments. (** p< 0.05) Fpx:Sq^+ NPs vs Fpx:Sq NPs + verapamil; (* p< 0.05) Fpx vs Fpx:Sq^+ NPs; (**** p<0.05) Fpx + verapamil vs Fpx.

Structures are written as SMILES.

Consider `CO[C@H]1O[C@H](COS(=O)(=O)O)[C@@H](O[C@@H]2O[C@@H](C(=O)O)[C@@H](O[C@H]3O[C@H](COS(=O)(=O)O)[C@@H](O[C@@H]4O[C@H](C(=O)O)[C@@H](O[C@H]5O[C@H](COS(=O)(=O)O)[C@@H](O)[C@H](O)[C@H]5NS(=O)(=O)O)[C@H](O)[C@H]4O)[C@H](OS(=O)(=O)O)[C@H]3NS(=O)(=O)O)[C@H](O)[C@H]2OS(=O)(=O)O)[C@H](O)[C@H]1NS(=O)(=O)O` [Fpx, Fondaparinux], for which, in data set [1] (male, Sprague-Dawley, rat, plasma, 200 ug/kg, intravenous, 200 µg/kg (eq. Fpx), rats n=3, read-out: maximum plasma concentration (Cmax)), the Cmax worked out at 160 ng/mL. In data set [1] (oral, saline solution 50 mg/kg), the “oral absorption (concentration-time profile vs control group)” value is on record as “not absorbed”. For the same compound, the “permeated Fpx concentration” value in data set [2] (M-S direction, 120 min, absence of verapamil, donor 2 mg/mL Fpx, 37°C) amounted to 4.5 µg/mL; in data set [2] (M-S direction, 180 min, absence of verapamil, donor 2 mg/mL Fpx, 37°C), 4.9 µg/mL; in data set [2] (M-S direction, 180 min, verapamil 0.1 mM in the receptor (serosal) compartment), 12.6 µg/mL; in data set [2] (S-M direction, 180 min, absence of verapamil, donor 2 mg/mL Fpx, 37°C) it was 7.8 µg/mL. Besides, the “factor of increase of Fpx fluxes in the presence of verapamil” value in data set [2] (net fluxes at 180 min, verapamil in serosal side, vs free Fpx) amounted to 4.2.

For the origin of these results see patent EP2742955A1, “Nanoparticles based on bioconjugate of GAG” (Centre National de la Recherche Scientifique, priority 2012, dated 2014).
